For this data set the following is noted: diastereomeric ratio 1,2 to 3,4 in solids 95:5.

Like-named read-outs stand apart in the source and are kept apart here.

For the compound `O=C(O)c1ccccc1O` [Salicylate], the “stability remark for salt solids” value is, setting by setting: (salt prepared in EtOH) “stable”; (salt prepared in iPrOAc) “stable”.

Values taken from US20030139446A1, “Preparation of pharmaceutical salts” (Schering Corporation, priority 2001, published 2003).
